Values after ≈ are worked out from the molar mass of the structure shown. Residues, ends and D or L forms follow the SMILES beside them.
Key:
Type in all cases: cell-based
S. aureus ATCC 29213 = details: ATCC 29213, 2 h
Protocol: (§1) Minimum inhibitory concentrations (MICs) were determined as previously described. […] The bacteria then adjusted to a cell density of 5×10^5 CFU mL^−1 in MHB. […] The mixtures were incubated at 37 °C for 18–24 h. The MICs were calculated as the lowest concentration of the peptide that prevented visible turbidity. The tests were performed in triplicate using three replicates for each experiment. Serum stability was determined according to the method previously described. Human serum was added in the peptide solution with the volume ratio of 1:1 in which the final concentration of 50% v/v of serum was yielded. Serum-peptide mixtures with the final concentration of 25% and 12.5% v/v serum were also prepared. Subsequently, the mixture was incubated at 37 °C for 2h. The antimicrobial activities of serum-preincubated peptides were determined according the MIC assay described above.

E. coli ATCC 25922 = details: ATCC 25922, 2 h
Protocol: as §1

P. aeruginosa ATCC27853 = tested on: P. aeruginosa ATCC27853
Protocol: (§2) Minimum inhibitory concentrations (MICs) were determined as previously described. The bacteria used to determine the MIC were first cultured in Mueller-Hilton broth (MHB) (AoBoX, Beijing, China) overnight at 37 °C and transferred into a fresh and sterile MHB and grown to an OD600 of 0.4. The bacteria then adjusted to a cell density of 5×10^5 CFU mL^−1 in MHB. Peptides were serially diluted in 0.01% acetic acid and 0.2% bovine serum albumin (BSA) (Sigma-Aldrich, Shanghai, China) in a volume of 50 μL per well to achieve final concentration ranging from 1 to 128 μM in sterile 96-well plates. 50 μL of prepared bacterial suspension was added to each well. The mixtures were incubated at 37 °C for 18–24 h. The MICs were calculated as the lowest concentration of the peptide that prevented visible turbidity. The tests were performed in triplicate using three replicates for each experiment.

S. epidermidis ATCC12228 = tested on: S. epidermidis ATCC12228
Protocol: as §2

S. typhimurium ATCC14028 = tested on: S. typhimurium ATCC14028
Protocol: as §2

E. coli UB 1005 = tested on: E. coli UB 1005
Protocol: as §2

E. coli ATCC25922 = tested on: E. coli ATCC25922
Protocol: as §2

S. aureus ATCC29213 = tested on: S. aureus ATCC29213
Protocol: as §2

S. pullorum C7913 = tested on: S. pullorum C7913
Protocol: as §2

S. typhimurium C7731 = tested on: S. typhimurium C7731
Protocol: as §2

S. faecalis ATCC29212 = tested on: S. faecalis ATCC29212
Protocol: as §2

human erythrocytes = assay: Hemolytic activity; details: for HC10, concentration that induced 10% hemolysis of human red blood cells: probit regression in SPSS, unit not given (peptides tested at 0.5–256 µM)
Protocol: Hemolytic activities of the peptides were determined according to the method described previously. Fresh heparinized human whole blood from healthy donor (Yang Yang, Harbin, China) was centrifuged at 1000 g for 5 min at 4 °C. The obtained erythrocytes were washed three times and resuspended in PBS. Then, 50 μL of erythrocyte solution was incubated with 50 μL peptides at different concentrations at 37 °C for 1 h. Erythrocytes in either PBS or 0.1% Triton X-100 (Sigma-Aldrich, Shanghai, China) were used as negative and positive controls, respectively. After centrifugation at 1000 g for 5 min at 4 °C, the supernatant was transferred into a new 96-well plate and the extent of hemolysis was monitored using a multimode microplate reader (Infinite M200 Pro, Tecan, Switzerland) at 576 nm. The percentage of hemolysis was calculated according to the following formula:hemolysis (%) = [(A-A0)/(At-A0)]×100(2) where A is the absorbance of the peptide sample, A0 and At represent 0% and 100% hemolysis determined in 10 mM PBS and 0.1% Triton X-100, respectively. Results were expressed as average values from three independent experiments and each experiment was performed in triplicate.
For statistical evaluation, data were analyzed using the Statistical Product and Service Solutions software (SPSS Inc., Chicago, IL, USA) by one-way ANOVA and the values were presented as mean ± standard error (SE). HC10 values were calculated by using probit regression in SPSS 19.

[1] = tested on: Gram-positive and Gram-negative bacteria; assay: MIC over all tested bacterial strains (range, geometric mean); details: for GM, geometric mean of the MIC values: all tested strains, 256 μM used where no activity at 128 μM
Protocol: as §2
It is calculated as HC10/GM.

CC[C@H](C)[C@H](NC(=O)[C@H](CCCCN)NC(=O)[C@H](CCCCN)NC(=O)[C@H](Cc1ccccc1)NC(=O)[C@H](CC(C)C)NC(=O)[C@H](CCCCN)NC(=O)[C@H](Cc1c[nH]c2ccccc12)NC(=O)[C@@H](N)CCCCN)C(=O)N[C@@H](CCCNC(=N)N)C(=O)N[C@@H](Cc1ccccc1)C(=O)NCC(=O)N[C@@H](CCCNC(=N)N)C(=O)N[C@@H](Cc1ccccc1)C(=O)N[C@@H](CC(C)C)C(=O)N[C@@H](CCCNC(=N)N)C(=O)N[C@@H](CCCCN)C(=O)N[C@H](C(=O)N[C@@H](CCCNC(=N)N)C(=O)N[C@@H](CCCNC(=N)N)C(=O)N[C@@H](Cc1ccccc1)C(=O)N[C@@H](CCCNC(=N)N)C(=O)N1CCC[C@H]1C(=O)N[C@@H](CCCCN)C(N)=O)[C@@H](C)CC [CA-FO] (H-KWKLFKKIRFGRFLRKIRRFRPK-NH2)
MIC after incubating with human serum (S. aureus ATCC 29213): 4 µM
MIC after incubating with human serum (E. coli ATCC 25922): 4 µM
MIC (P. aeruginosa ATCC27853): 4 µM (≈ 12.4 µg/mL)
MIC (S. epidermidis ATCC12228): 4 µM (≈ 12.4 µg/mL)
MIC (S. typhimurium ATCC14028): 4 µM (≈ 12.4 µg/mL)
MIC (E. coli UB 1005): 2 µM (≈ 6.21 µg/mL)
MIC (E. coli ATCC25922): 2 µM (≈ 6.21 µg/mL)
MIC (S. aureus ATCC29213): 2 µM (≈ 6.21 µg/mL)
MIC (S. pullorum C7913): 8 µM (≈ 24.8 µg/mL)
MIC (S. typhimurium C7731): 4 µM (≈ 12.4 µg/mL)
MIC (S. faecalis ATCC29212): 4 µM (≈ 12.4 µg/mL)
hemolytic activity (human erythrocytes; 256 μM peptide, 37 °C, 1 h, absorbance 576 nm, average of three independent experiments): 13.83%
HC10, concentration that induced 10% hemolysis of human red blood cells (human erythrocytes; 37 °C, 1 h): 143.34
fold decrease of hemolysis compared to CA (human erythrocytes; at 256 μM): approximately 5 fold
MICs range against all tested bacterial strains ([1]; all nine tested Gram-negative and Gram-positive strains): 2 to 8 µM
GM, geometric mean of the MIC values [1]: 3.43 µM

CC[C@H](C)[C@H](NC(=O)[C@H](CCCCN)NC(=O)[C@H](CCCCN)NC(=O)[C@H](Cc1ccccc1)NC(=O)[C@H](CC(C)C)NC(=O)[C@H](CCCCN)NC(=O)[C@H](Cc1c[nH]c2ccccc12)NC(=O)[C@@H](N)CCCCN)C(=O)N[C@@H](Cc1c[nH]c2ccccc12)C(=O)N[C@@H](Cc1c[nH]c2ccccc12)C(=O)N1CCC[C@H]1C(=O)N[C@@H](Cc1ccccc1)C(=O)N[C@@H](CC(C)C)C(=O)N[C@@H](CCCNC(=N)N)C(=O)N[C@@H](CCCNC(=N)N)C(N)=O [CA-TP] (H-KWKLFKKIWWPFLRR-NH2)
MIC after incubating with human serum (S. aureus ATCC 29213): 4 µM
MIC after incubating with human serum (E. coli ATCC 25922): 4 µM
MIC (P. aeruginosa ATCC27853): 4 µM (≈ 8.53 µg/mL)
MIC (S. epidermidis ATCC12228): 2 µM (≈ 4.26 µg/mL)
MIC (S. typhimurium ATCC14028): 4 µM (≈ 8.53 µg/mL)
MIC (E. coli UB 1005): 4 µM (≈ 8.53 µg/mL)
MIC (E. coli ATCC25922): 2 µM (≈ 4.26 µg/mL)
MIC (S. aureus ATCC29213): 2 µM (≈ 4.26 µg/mL)
MIC (S. pullorum C7913): 4 µM (≈ 8.53 µg/mL)
MIC (S. typhimurium C7731): 2 µM (≈ 4.26 µg/mL)
MIC (S. faecalis ATCC29212): 2 µM (≈ 4.26 µg/mL)
HC10, concentration that induced 10% hemolysis of human red blood cells (human erythrocytes; 37 °C, 1 h): 49.66
GM, geometric mean of the MIC values [1]: 2.72 µM

CC[C@H](C)[C@H](NC(=O)[C@H](CCCCN)NC(=O)[C@H](CCCCN)NC(=O)[C@H](Cc1ccccc1)NC(=O)[C@H](CC(C)C)NC(=O)[C@H](CCCCN)NC(=O)[C@H](Cc1c[nH]c2ccccc12)NC(=O)[C@@H](N)CCCCN)C(N)=O [CA] (H-KWKLFKKI-NH2)
MIC (P. aeruginosa ATCC27853): >128 µM
MIC (S. epidermidis ATCC12228): >128 µM
MIC (S. typhimurium ATCC14028): >128 µM
MIC (E. coli UB 1005): >128 µM
MIC (E. coli ATCC25922): 64 µM (≈ 69.7 µg/mL)
MIC (S. aureus ATCC29213): 128 µM (≈ 139 µg/mL)
MIC (S. pullorum C7913): >128 µM
MIC (S. typhimurium C7731): >128 µM
MIC (S. faecalis ATCC29212): >128 µM
HC10, concentration that induced 10% hemolysis of human red blood cells (human erythrocytes; 37 °C, 1 h): 15.54
GM, geometric mean of the MIC values [1]: 203.19 µM

CC[C@H](C)[C@H](NC(=O)[C@H](CCCCN)NC(=O)[C@H](CCCNC(=N)N)NC(=O)[C@H](CC(C)C)NC(=O)[C@H](Cc1ccccc1)NC(=O)[C@H](CCCNC(=N)N)NC(=O)CNC(=O)[C@H](Cc1ccccc1)NC(=O)[C@@H](N)CCCNC(=N)N)C(=O)N[C@@H](CCCNC(=N)N)C(=O)N[C@@H](CCCNC(=N)N)C(=O)N[C@@H](Cc1ccccc1)C(=O)N[C@@H](CCCNC(=N)N)C(=O)N1CCC[C@H]1C(=O)N[C@@H](CCCCN)C(N)=O [FO] (H-RFGRFLRKIRRFRPK-NH2)
MIC (P. aeruginosa ATCC27853): 32 µM (≈ 65 µg/mL)
MIC (S. epidermidis ATCC12228): 16 µM (≈ 32.5 µg/mL)
MIC (S. typhimurium ATCC14028): 32 µM (≈ 65 µg/mL)
MIC (E. coli UB 1005): 16 µM (≈ 32.5 µg/mL)
MIC (E. coli ATCC25922): 32 µM (≈ 65 µg/mL)
MIC (S. aureus ATCC29213): 64 µM (≈ 130 µg/mL)
MIC (S. pullorum C7913): 16 µM (≈ 32.5 µg/mL)
MIC (S. typhimurium C7731): 32 µM (≈ 65 µg/mL)
MIC (S. faecalis ATCC29212): 16 µM (≈ 32.5 µg/mL)
HC10, concentration that induced 10% hemolysis of human red blood cells (human erythrocytes; 37 °C, 1 h): 2.78
GM, geometric mean of the MIC values [1]: 25.40 µM

CC(C)C[C@H](NC(=O)[C@H](Cc1ccccc1)NC(=O)[C@@H]1CCCN1C(=O)[C@H](Cc1c[nH]c2ccccc12)NC(=O)[C@@H](N)Cc1c[nH]c2ccccc12)C(=O)N[C@@H](CCCNC(=N)N)C(=O)N[C@@H](CCCNC(=N)N)C(N)=O [TP] (H-WWPFLRR-NH2)
MIC (P. aeruginosa ATCC27853): 64 µM (≈ 67.8 µg/mL)
MIC (S. epidermidis ATCC12228): 32 µM (≈ 33.9 µg/mL)
MIC (S. typhimurium ATCC14028): 32 µM (≈ 33.9 µg/mL)
MIC (E. coli UB 1005): 128 µM (≈ 136 µg/mL)
MIC (E. coli ATCC25922): 128 µM (≈ 136 µg/mL)
MIC (S. aureus ATCC29213): 64 µM (≈ 67.8 µg/mL)
MIC (S. pullorum C7913): 64 µM (≈ 67.8 µg/mL)
MIC (S. typhimurium C7731): 64 µM (≈ 67.8 µg/mL)
MIC (S. faecalis ATCC29212): >128 µM
HC10, concentration that induced 10% hemolysis of human red blood cells (human erythrocytes; 37 °C, 1 h): 25.06
GM, geometric mean of the MIC values [1]: 74.66 µM
